This is an account of results in patent publication US11344554B2, “Animal and human anti-malarial agents” (Celgene Corporation, priority 2016, dated 2022).

As a reminder, the IC50 is the point on the concentration scale where inhibition reaches its midpoint.

This assay concerns Plasmodium falciparum. Put plainly: Plasmodium falciparum in vitro [3H]-hypoxanthine parasite growth inhibition assay. The class given is cell-based. The note with it: Erythrocyte, P. falciparum asexual blood stage parasites in human erythrocytes, [3H]-hypoxanthine uptake, read-out: Act Class (IC50 activity level).

Where only a bound is given, the exact number is not on record here.

As for `CN1CCC(n2c(Nc3ccc(Cl)c(Cl)c3)nc3cnc(NC(C)(C)C)nc32)CC1` [Cpd 36, N2-tert-butyl-N8-(3,4-dichlorophenyl)-9-(1-methylpiperidin-4-yl)-9H-purine-2,8-diamine], the IC50 was under 100 nM.

For the compound `CC(C)(C)Nc1ncc2nc(Nc3cccc(OC(F)(F)F)c3)n(C3CCNCC3)c2n1` [Cpd 29, N2-tert-butyl-9-(piperidin-4-yl)-N8-(3-(trifluoromethoxy)phenyl)-9H-purine-2,8-diamine], the IC50 is under 100 nM.

Regarding `CC(C)(C)Nc1ncc2nc(Nc3ccc(OC(F)(F)F)cc3)n(C3CCNCC3)c2n1` [Cpd 21, N2-tert-butyl-9-(piperidin-4-yl)-N8-(4-(trifluoromethoxy)phenyl)-9H-purine-2,8-diamine], the half-maximal inhibitory concentration (IC50) was 100 to 200 nM.

As for `CC(C)(C)Nc1ncc2nc(Nc3cccc(C(F)(F)F)c3)n(C3CCNCC3)c2n1` [Cpd 3, N2-tert-butyl-9-(piperidin-4-yl)-N8-(3-(trifluoromethyl)phenyl)-9H-purine-2,8-diamine], the IC50 was under 100 nM.

For the compound `FC(F)(F)c1cc(Cl)cc(Nc2nc3cnc(NC4CCOCC4)nc3n2C2CCNCC2)c1` [Cpd 51, N8-(3-chloro-5-(trifluoromethyl)phenyl)-9-(piperidin-4-yl)-N2-(tetrahydro-2H-pyran-4-yl)-9H-purine-2,8-diamine], the IC50 is 100 to 200 nM.

As to `CC(C)(C)Nc1ncc2nc(Nc3ccc(C(F)(F)F)c(Cl)c3)n(C3CCNCC3)c2n1` [Cpd 82, N2-tert-butyl-N8-(3-chloro-4-(trifluoromethyl)phenyl)-9-(piperidin-4-yl)-9H-purine-2,8-diamine], the IC50 lay in the range of 200 to 500 nM.

Regarding `CC1(Nc2ncc3nc(Nc4cccc(OC(F)(F)F)c4)n(C4CCNCC4)c3n2)CCOCC1` [Cpd 55, N2-(4-methyltetrahydro-2H-pyran-4-yl)-9-(piperidin-4-yl)-N8-(3-(trifluoromethoxy)phenyl)-9H-purine-2,8-diamine], the IC50 lay within 100 to 200 nM.

On to `FC(F)(F)c1cc(Nc2nc3cnc(NC4CCCC4)nc3n2C2CCNCC2)cc(C(F)(F)F)c1` [Cpd 85, N8-(3,5-bis(trifluoromethyl)phenyl)-N2-cyclopentyl-9-(piperidin-4-yl)-9H-purine-2,8-diamine], for which the IC50 was under 100 nM.

For the compound `CC(C)(C)Nc1ncc2nc(Nc3cccc(C(F)(F)F)c3)n(CCN3CCNCC3)c2n1` [Cpd 22, N2-tert-butyl-9-(2-(piperazin-1-yl)ethyl)-N8-(3-(trifluoromethyl)phenyl)-9H-purine-2,8-diamine], the IC50 fell in the range of 500 to 1200 nM.

Regarding `CC(C)Nc1ncc2nc(Nc3ccc(Cl)c(Cl)c3)n(C3CCNCC3)c2n1` [Cpd 65, N8-(3,4-dichlorophenyl)-N2-isopropyl-9-(piperidin-4-yl)-9H-purine-2,8-diamine], the IC50 is under 100 nM.

For `CC(C)(C)Nc1ncc2nc(Nc3cc(F)cc(Cl)c3)n(C3CCNCC3)c2n1` [Cpd 26, N2-tert-butyl-N8-(3-chloro-5-fluorophenyl)-9-(piperidin-4-yl)-9H-purine-2,8-diamine], the IC50 was under 100 nM.

Consider `FC(F)(F)c1cc(Nc2nc3cnc(NC4CC4)nc3n2C2CCNCC2)cc(C(F)(F)F)c1` [Cpd 96, N8-(3,5-bis(trifluoromethyl)phenyl)-N2-cyclopropyl-9-(piperidin-4-yl)-9H-purine-2,8-diamine], for which the IC50 lay in the range of 100 to 200 nM.

Turning to `CC(C)(C)Nc1ncc2nc(Nc3cccc(C(F)(F)F)c3)n(CC3CCNC3)c2n1` (stereo not drawn) [Cpd 24, N2-tert-butyl-9-(pyrrolidin-3-ylmethyl)-N8-(3-(trifluoromethyl)phenyl)-9H-purine-2,8-diamine], the IC50 fell in the range of 200 to 500 nM.

Regarding `CC(C)(C)Nc1ncc2nc(Nc3cccc(C#N)c3)n(C3CCNCC3)c2n1` [Cpd 50, 3-(2-(tert-butylamino)-9-(piperidin-4-yl)-9H-purin-8-ylamino)benzonitrile], the IC50 fell in the range of 200 to 500 nM.

`CC(C)(C)Nc1ncc2nc(Nc3ccc(C(F)(F)F)cc3)n(C3CCN(CCN)CC3)c2n1` [Cpd 5, 9-(1-(2-aminoethyl)piperidin-4-yl)-N2-tert-butyl-N8-(4-(trifluoromethyl)phenyl)-9H-purine-2,8-diamine]: the IC50 was in the range of 100 to 200 nM.
